# Data from ChEMBL document CHEMBL5291721, “A preclinical secondary pharmacology resource illuminates target-adverse drug reaction associations of marketed drugs” (Nat Commun, 2023).
# What was measured:
# Progesterone receptor = target: T1, Progesterone receptor (Homo sapiens, UniProt P06401); assay type: functional
# T1 sequence (P06401 whole entry): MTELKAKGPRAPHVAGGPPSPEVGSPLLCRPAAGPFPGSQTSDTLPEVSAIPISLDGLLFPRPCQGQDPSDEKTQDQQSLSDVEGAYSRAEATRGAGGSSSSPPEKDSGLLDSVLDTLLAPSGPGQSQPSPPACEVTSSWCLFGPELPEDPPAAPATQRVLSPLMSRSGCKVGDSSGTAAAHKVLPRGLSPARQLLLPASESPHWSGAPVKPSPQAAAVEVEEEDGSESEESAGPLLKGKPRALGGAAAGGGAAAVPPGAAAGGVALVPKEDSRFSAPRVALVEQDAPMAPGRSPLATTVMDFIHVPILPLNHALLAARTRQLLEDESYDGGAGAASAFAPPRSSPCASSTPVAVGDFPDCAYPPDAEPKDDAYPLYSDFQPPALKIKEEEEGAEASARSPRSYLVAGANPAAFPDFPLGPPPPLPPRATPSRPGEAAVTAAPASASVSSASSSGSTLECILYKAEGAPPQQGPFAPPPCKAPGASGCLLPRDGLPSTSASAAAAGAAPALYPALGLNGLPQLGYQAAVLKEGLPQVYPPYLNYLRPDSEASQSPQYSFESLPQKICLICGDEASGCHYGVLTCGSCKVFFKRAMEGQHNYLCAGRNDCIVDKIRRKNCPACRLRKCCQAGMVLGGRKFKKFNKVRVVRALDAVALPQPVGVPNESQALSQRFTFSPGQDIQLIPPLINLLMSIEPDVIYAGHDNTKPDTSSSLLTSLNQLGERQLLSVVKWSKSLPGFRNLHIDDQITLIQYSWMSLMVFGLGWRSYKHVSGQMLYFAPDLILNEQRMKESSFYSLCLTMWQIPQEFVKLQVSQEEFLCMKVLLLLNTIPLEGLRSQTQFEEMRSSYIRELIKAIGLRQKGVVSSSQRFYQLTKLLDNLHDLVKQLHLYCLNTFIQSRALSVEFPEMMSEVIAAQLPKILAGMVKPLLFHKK
# [1] = target: Vascular endothelial growth factor receptor 2 (Homo sapiens, UniProt P35968); assay type: functional
# [2] = target: Sodium-dependent noradrenaline transporter (Homo sapiens, UniProt P23975)
# [3] = target: T2, Alpha-2A adrenergic receptor (Homo sapiens, UniProt P08913)
# T2 sequence (P08913 whole entry): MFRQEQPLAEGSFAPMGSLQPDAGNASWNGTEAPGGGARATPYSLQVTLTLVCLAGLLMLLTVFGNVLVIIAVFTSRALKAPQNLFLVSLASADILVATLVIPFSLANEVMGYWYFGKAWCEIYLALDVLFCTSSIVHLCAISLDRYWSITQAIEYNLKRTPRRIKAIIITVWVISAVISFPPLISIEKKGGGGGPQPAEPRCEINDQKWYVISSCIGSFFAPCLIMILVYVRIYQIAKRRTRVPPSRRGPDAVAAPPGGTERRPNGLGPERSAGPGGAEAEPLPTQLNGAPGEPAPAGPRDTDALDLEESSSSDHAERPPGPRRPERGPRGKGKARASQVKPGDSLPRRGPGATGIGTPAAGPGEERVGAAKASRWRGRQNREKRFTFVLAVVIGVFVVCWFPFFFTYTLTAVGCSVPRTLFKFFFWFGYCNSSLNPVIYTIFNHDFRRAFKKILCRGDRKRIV
# Acetylcholinesterase = Acetylcholinesterase (Homo sapiens, UniProt P22303); assay type: functional
# Mu-type opioid receptor = Mu-type opioid receptor (Homo sapiens, UniProt P35372)
# [4] = target: 3',5'-cyclic-AMP phosphodiesterase 4A (Homo sapiens, UniProt P27815); assay type: functional
# D(3) dopamine receptor = D(3) dopamine receptor (Homo sapiens, UniProt P35462)
# D(1A) dopamine receptor = D(1A) dopamine receptor (Homo sapiens, UniProt P21728)
# [5] = target: Sodium-dependent serotonin transporter (Homo sapiens, UniProt P31645)
# [6] = target: T3, Muscarinic acetylcholine receptor M1 (Homo sapiens, UniProt P11229); assay type: functional, cell-based
# T3 sequence (P11229 whole entry): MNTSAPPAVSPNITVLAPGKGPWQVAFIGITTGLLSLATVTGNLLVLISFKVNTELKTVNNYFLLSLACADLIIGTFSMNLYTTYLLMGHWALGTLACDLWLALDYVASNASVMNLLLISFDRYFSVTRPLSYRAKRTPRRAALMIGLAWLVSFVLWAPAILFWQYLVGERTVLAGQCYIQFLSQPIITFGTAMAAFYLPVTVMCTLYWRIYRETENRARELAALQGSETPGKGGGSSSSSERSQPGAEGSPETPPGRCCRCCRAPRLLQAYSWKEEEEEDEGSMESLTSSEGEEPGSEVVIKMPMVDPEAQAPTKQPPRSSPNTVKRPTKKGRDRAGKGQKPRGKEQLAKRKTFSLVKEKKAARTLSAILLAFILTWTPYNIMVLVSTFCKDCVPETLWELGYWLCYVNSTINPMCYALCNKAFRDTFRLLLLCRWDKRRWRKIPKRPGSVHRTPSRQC
# [7] = target: Beta-2 adrenergic receptor (Homo sapiens, UniProt P07550)
# Note: assay procedure not described here.
# D(3) dopamine receptor, sequence (P35462 whole entry): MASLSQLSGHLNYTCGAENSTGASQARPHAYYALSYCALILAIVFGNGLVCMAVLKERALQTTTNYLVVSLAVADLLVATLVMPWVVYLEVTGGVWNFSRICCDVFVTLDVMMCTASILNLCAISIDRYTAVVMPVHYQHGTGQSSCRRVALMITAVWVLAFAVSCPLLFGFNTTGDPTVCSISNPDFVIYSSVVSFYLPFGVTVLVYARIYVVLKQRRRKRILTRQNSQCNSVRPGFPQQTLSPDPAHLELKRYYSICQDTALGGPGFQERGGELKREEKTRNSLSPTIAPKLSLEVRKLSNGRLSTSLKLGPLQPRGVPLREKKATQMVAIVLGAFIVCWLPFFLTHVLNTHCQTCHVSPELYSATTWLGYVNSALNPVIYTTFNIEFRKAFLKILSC
# 3',5'-cyclic-AMP phosphodiesterase 4A, sequence (P27815 whole entry): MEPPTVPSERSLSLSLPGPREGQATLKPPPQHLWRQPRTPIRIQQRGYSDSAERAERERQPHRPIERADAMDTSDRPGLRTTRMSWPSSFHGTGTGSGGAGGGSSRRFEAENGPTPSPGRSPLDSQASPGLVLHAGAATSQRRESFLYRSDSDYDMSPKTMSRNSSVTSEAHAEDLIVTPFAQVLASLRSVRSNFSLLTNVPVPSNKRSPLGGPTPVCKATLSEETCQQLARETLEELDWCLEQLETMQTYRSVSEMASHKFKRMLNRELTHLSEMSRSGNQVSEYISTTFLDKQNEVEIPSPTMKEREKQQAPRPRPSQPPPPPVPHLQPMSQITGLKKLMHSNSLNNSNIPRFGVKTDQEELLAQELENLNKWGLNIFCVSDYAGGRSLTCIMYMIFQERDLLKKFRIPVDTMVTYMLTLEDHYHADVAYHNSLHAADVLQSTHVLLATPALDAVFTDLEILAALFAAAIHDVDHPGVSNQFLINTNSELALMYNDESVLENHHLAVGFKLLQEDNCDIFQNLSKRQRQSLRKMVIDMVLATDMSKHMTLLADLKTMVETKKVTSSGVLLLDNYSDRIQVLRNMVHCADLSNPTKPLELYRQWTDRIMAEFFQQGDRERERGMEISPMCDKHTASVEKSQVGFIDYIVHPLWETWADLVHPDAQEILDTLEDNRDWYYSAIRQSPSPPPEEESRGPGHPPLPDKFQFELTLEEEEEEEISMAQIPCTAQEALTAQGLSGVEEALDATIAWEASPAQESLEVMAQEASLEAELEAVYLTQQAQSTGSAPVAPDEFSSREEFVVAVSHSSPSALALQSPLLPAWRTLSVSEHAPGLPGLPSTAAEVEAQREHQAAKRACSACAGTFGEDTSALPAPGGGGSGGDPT
# Mu-type opioid receptor, sequence (P35372 whole entry): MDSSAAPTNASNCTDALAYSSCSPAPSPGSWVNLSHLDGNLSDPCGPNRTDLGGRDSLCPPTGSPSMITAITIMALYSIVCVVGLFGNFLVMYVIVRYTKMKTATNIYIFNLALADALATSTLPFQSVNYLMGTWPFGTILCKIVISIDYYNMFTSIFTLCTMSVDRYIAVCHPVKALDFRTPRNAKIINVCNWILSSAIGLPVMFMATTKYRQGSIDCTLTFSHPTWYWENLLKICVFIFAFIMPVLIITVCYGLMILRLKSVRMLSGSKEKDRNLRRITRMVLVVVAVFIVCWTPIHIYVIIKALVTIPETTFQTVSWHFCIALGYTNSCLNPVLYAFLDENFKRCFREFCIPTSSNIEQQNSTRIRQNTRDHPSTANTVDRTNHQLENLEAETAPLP
# D(1A) dopamine receptor, sequence (P21728 whole entry): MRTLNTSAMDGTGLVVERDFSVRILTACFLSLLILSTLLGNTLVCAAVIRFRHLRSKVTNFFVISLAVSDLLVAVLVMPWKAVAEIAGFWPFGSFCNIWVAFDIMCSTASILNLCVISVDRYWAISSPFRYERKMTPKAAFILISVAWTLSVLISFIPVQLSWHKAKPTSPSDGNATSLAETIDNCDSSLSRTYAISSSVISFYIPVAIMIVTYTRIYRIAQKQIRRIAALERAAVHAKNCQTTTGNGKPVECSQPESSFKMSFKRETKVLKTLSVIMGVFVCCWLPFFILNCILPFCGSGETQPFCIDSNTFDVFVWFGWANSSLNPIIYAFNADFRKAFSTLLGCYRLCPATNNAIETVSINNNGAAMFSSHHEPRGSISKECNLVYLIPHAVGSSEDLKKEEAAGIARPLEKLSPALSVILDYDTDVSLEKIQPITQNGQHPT
# Vascular endothelial growth factor receptor 2, sequence (P35968 whole entry): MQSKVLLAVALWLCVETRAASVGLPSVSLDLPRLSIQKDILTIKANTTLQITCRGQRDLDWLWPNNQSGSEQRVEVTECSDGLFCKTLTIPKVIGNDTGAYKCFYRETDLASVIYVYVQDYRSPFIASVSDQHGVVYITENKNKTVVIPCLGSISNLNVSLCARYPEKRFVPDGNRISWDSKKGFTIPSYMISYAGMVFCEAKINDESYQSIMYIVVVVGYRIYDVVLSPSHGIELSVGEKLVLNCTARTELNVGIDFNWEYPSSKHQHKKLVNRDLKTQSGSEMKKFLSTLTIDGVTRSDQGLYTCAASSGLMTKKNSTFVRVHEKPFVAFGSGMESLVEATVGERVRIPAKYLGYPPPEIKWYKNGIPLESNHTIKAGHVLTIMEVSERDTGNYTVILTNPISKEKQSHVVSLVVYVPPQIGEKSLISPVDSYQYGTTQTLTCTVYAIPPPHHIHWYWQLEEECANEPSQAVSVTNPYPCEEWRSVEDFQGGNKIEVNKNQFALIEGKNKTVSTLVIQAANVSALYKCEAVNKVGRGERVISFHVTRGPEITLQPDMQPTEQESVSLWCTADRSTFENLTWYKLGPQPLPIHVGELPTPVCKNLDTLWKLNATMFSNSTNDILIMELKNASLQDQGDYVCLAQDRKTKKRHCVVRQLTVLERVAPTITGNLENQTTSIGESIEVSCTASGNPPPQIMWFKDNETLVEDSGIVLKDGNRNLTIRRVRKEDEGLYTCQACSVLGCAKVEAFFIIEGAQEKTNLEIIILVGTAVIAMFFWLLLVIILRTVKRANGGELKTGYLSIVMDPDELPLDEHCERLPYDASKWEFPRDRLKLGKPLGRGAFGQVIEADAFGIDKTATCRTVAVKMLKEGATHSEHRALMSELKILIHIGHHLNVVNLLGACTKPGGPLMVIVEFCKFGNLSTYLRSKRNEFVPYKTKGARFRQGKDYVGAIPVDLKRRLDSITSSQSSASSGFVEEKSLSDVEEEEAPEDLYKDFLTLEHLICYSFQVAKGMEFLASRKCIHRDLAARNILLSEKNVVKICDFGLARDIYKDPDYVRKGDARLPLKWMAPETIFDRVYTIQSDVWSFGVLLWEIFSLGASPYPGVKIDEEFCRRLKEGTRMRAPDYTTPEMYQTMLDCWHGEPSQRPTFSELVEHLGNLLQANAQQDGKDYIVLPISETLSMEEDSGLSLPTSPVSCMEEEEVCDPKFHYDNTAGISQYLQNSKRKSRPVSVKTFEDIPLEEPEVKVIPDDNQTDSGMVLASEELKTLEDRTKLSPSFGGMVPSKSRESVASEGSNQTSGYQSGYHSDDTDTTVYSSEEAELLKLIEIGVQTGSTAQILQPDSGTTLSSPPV
# Sodium-dependent noradrenaline transporter, sequence (P23975 whole entry): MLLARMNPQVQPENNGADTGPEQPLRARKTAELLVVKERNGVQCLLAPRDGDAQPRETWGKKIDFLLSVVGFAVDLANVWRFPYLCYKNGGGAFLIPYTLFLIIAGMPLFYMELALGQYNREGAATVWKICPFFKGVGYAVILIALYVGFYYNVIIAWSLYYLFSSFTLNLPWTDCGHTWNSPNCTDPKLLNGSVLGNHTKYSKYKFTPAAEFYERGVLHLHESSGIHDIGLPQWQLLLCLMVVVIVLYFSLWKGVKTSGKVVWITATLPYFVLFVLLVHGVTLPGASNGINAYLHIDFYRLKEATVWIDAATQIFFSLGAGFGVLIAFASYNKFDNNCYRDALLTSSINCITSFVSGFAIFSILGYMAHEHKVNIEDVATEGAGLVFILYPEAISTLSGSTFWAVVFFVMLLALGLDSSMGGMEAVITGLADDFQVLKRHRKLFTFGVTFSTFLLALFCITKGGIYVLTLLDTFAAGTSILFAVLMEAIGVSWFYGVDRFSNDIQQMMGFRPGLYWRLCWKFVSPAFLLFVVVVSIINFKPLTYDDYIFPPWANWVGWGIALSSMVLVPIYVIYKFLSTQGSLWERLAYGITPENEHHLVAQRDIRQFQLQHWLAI
# Acetylcholinesterase, sequence (P22303 whole entry): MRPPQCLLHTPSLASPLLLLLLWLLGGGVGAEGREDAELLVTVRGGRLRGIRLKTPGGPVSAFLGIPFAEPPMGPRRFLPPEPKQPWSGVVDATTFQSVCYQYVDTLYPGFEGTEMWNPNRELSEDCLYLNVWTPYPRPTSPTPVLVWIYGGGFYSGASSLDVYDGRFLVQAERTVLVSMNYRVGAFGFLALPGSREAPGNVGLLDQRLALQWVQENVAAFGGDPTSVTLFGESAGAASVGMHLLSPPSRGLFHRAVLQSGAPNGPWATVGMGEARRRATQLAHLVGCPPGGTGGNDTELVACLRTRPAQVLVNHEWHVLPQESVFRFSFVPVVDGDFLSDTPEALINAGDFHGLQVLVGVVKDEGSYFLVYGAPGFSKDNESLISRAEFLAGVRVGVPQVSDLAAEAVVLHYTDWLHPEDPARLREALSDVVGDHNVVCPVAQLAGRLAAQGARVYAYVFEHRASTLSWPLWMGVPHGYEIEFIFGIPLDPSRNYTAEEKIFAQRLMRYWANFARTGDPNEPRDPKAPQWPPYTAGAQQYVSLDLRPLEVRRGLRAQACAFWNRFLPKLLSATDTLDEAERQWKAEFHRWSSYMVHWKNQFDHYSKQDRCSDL
SMILES,AC50 (Progesterone receptor),AC50 [1],AC50 [2],AC50 [3],AC50 (Acetylcholinesterase),AC50 (Mu-type opioid receptor),AC50 [4],AC50 (D(3) dopamine receptor),AC50 (D(1A) dopamine receptor),AC50 [5],AC50 [6],AC50 [7]
Cc1nc([N+](=O)[O-])cn1-c1ccc([N+](=O)[O-])cc1 [NITREFAZOLE],> 30 µM,,,,,,,,,,,
CC(C)(S)[C@@H](N)C(=O)O [PENICILLAMINE],,> 30 µM,> 30 µM,> 30 µM,> 30 µM,> 30 µM,> 30 µM,> 30 µM,> 30 µM,,,
C1CCC(C(CC2CCCCN2)C2CCCCC2)CC1 (centres undefined) [PERHEXILINE],> 30 µM,,,,,,,,,,,
C[N+]1(C)CCC(OC(=O)C(O)(c2ccccc2)C2CCCC2)C1 (centres undefined) [GLYCOPYRRONIUM BROMIDE],> 10 µM,,,,,,> 30 µM,,,,,
C[N+](C)(C)CCO [CHOLINE],,,> 30 µM,> 30 µM,> 30 µM,> 30 µM,> 30 µM,> 30 µM,> 30 µM,,,
CNC1Cc2ccccc2N(C)c2ccccc21 (centres undefined) [METAPRAMINE],> 30 µM,,,,,,,,,,,
Oc1c(Cl)cc(Cl)c2cccnc12 [CHLOROXINE],,> 30 µM,5.19 µM,> 30 µM,> 30 µM,> 30 µM,> 30 µM,> 30 µM,> 30 µM,> 30 µM,> 30 µM,
CCC(=O)NCC[C@@H]1CCc2ccc3c(c21)CCO3 [RAMELTEON],,,> 30 µM,> 30 µM,> 30 µM,> 30 µM,> 30 µM,> 30 µM,> 30 µM,> 30 µM,> 30 µM,
CN(C)CCC=C1c2ccccc2C(C)(C)c2ccccc21,> 30 µM,,,,,,,,,,,
C[C@H]1CNCCc2ccc(Cl)cc21 [LORCASERIN],> 30 µM,,,,,,,,,,,
COc1cc(NC(C)CCCN)c2ncccc2c1 (centres undefined) [PRIMAQUINE],20 µM,> 30 µM,,,,,16.2 µM,,,,,
CN(C)CCn1nnnc1SCC1=C(C(=O)O)N2C(=O)[C@@H](NC(=O)Cc3csc(N)n3)[C@H]2SC1 [CEFOTIAM],,,> 30 µM,> 30 µM,> 30 µM,> 30 µM,> 30 µM,> 30 µM,> 30 µM,> 30 µM,> 30 µM,
Cc1cc(C#N)cc(C)c1Oc1nc(Nc2ccc(C#N)cc2)nc(N)c1Br [ETRAVIRINE],,,5.88 µM,20 µM,> 30 µM,19.1 µM,> 30 µM,> 30 µM,4.53 µM,> 30 µM,> 10 µM,
CNC(=O)c1ccccc1Sc1ccc2c(/C=C/c3ccccn3)n[nH]c2c1 [AXITINIB],> 30 µM,,,,,,,,,,,> 10 µM
N[C@@H]1[C@H]2CN(c3nc4c(cc3F)c(=O)c(C(=O)O)cn4-c3ccc(F)cc3F)C[C@@H]12 [TROVAFLOXACIN],> 30 µM,,,,,,,,,,,
CC(=O)Nc1ccc(O)cc1 [ACETAMINOPHEN],> 30 µM,> 30 µM,> 30 µM,> 30 µM,> 30 µM,> 30 µM,> 30 µM,> 30 µM,,,,

SMILES,AC50 (Progesterone receptor),AC50 [1],AC50 [2],AC50 [3],AC50 (Acetylcholinesterase),AC50 (Mu-type opioid receptor),AC50 [4],AC50 (D(3) dopamine receptor),AC50 (D(1A) dopamine receptor),AC50 [5],AC50 [6],AC50 [7]
Nc1nc(NC2CC2)c2ncn([C@H]3C=C[C@@H](CO)C3)c2n1 [ABACAVIR],> 30 µM,,,,,,,,,,,
CCCCCCOc1nsnc1C1=CCCN(C)C1 [XANOMELINE],,> 30 µM,2.74 µM,1.39 µM,17.2 µM,> 30 µM,28.5 µM,0.273 µM,1.22 µM,18.5 µM,,
CN(C)CC(c1ccc(O)cc1)C1(O)CCCCC1 (centres undefined) [DESVENLAFAXINE],,> 30 µM,,> 30 µM,> 30 µM,28.4 µM,> 30 µM,,> 30 µM,,> 30 µM,
COc1ccc(CC(C)(C)NC[C@H](O)c2cc(O)cc3c2OCC(=O)N3)cc1 [OLODATEROL],> 30 µM,,,,,,,,,,,
CC(=O)NCCCS(=O)(=O)O [ACAMPROSATE],> 30 µM,,,,,,,,,,,
COCc1c(C(C)C)nc(C(C)C)c(/C=C/[C@@H](O)C[C@@H](O)CC(=O)O)c1-c1ccc(F)cc1 [CERIVASTATIN],,> 30 µM,> 30 µM,> 30 µM,> 30 µM,> 30 µM,21.5 µM,> 30 µM,> 30 µM,,,
CCC1=C(C)CN(C(=O)NCCc2ccc(S(=O)(=O)NC(=O)N[C@H]3CC[C@H](C)CC3)cc2)C1=O [GLIMEPIRIDE],,> 30 µM,> 30 µM,> 30 µM,> 30 µM,> 30 µM,> 30 µM,> 30 µM,> 30 µM,,,
CCc1oc2ccccc2c1C(=O)c1cc(I)c(O)c(I)c1 [BENZIODARONE],,,12.6 µM,29.9 µM,> 30 µM,9.64 µM,2.37 µM,8.59 µM,10 µM,> 30 µM,,
C[C@]12CC[C@@H]3c4ccc(O)cc4CC[C@H]3[C@@H]1C[C@@H](O)[C@@H]2O [ESTRIOL],,> 30 µM,> 30 µM,> 30 µM,> 30 µM,> 30 µM,> 30 µM,> 30 µM,> 30 µM,,,
c1cnc(N2CCN(Cc3ccc4c(c3)OCO4)CC2)nc1 [PIRIBEDIL],> 30 µM,,,,,,,,,,,
COCCCN1CCC(NC(=O)c2cc(Cl)c(N)c3c2OCC3)CC1 [PRUCALOPRIDE],> 30 µM,,> 30 µM,> 30 µM,26.7 µM,> 30 µM,> 30 µM,> 30 µM,> 30 µM,> 30 µM,> 30 µM,
C=C[C@H]1C[N@@]2CC[C@H]1C[C@H]2[C@H](O)c1ccnc2ccc(OC)cc12 [QUININE],,> 30 µM,> 30 µM,5.45 µM,> 30 µM,8.38 µM,> 30 µM,> 30 µM,> 30 µM,,> 30 µM,
O=C(Cc1ccc(-c2ccccc2)cc1)Nc1ccccn1 [DIFENPIRAMIDE],,,2.16 µM,> 30 µM,> 30 µM,> 30 µM,> 30 µM,> 30 µM,> 30 µM,> 30 µM,> 30 µM,
COc1cc2nc(N(C)CCCNC(=O)C3CCCO3)nc(N)c2cc1OC (centres undefined) [ALFUZOSIN],> 30 µM,,,,,,,,,,,> 30 µM
N[C@@H](C(=O)N[C@@H]1C(=O)N2C(C(=O)O)=C(Cl)CC[C@H]12)c1ccccc1 [LORACARBEF ANHYDROUS],,,> 30 µM,> 30 µM,> 30 µM,> 30 µM,> 30 µM,> 30 µM,> 30 µM,> 30 µM,> 30 µM,
